Assay results taken from patent US6586407B1, “Injectable pharmaceutical formulations for partricin derivatives” (Quatex N.V., priority 1998, dated 2003).

System: mice
Assay: Single dose i.v. toxicity (LD50) in mice
Format: in vivo
Method: In single dose testing in mice, the i.v. 50% lethal dose (LD50) of the SPA-S-843 formulation, obtained according to Example 15, is increased from 70 mg/kg to >200 mg/kg

CNc1ccc(C(=O)CC(O)CC[C@H](C)C2OC(=O)C[C@H](O)CC(=O)C[C@H](O)C[C@H](O)C[C@H](O)C[C@H](O)C[C@]3(O)C[C@H](O)[C@@H](C(=O)NCCN(C)C)[C@H](C[C@@H](O[C@@H]4O[C@H](C)[C@@H](O)[C@H](NC(=O)CN(C)C)[C@@H]4O)/C=C/C=C/C=C/C=C/C=C/C=C/C=C/C2C)O3)cc1.N[C@@H](CC(=O)O)C(=O)O.N[C@@H](CC(=O)O)C(=O)O (stereo partly shown) [SPA-S-843, N-dimethylaminoacetyl-partricin A 2-dimethylamino-ethylamide diascorbate]
i.v. 50% lethal dose (LD50): 70 mg/kg
